These results are taken from US20110312992A1, “Inhibitors of C-Kit and Uses Thereof” (priority 2006, published 2011).

Counter-ions that a name gives are not always drawn.

Test [1] has as its system OCI/AML3. The experiment in a line: MTT-based cell proliferation/toxicity assay, OCI/AML3. Further details: species or system human. The following applies: for ability to reduce cell line (dose response): OCI/AML3, FIG. 25. The source says: (§1) An MTT- (3,(4,5-dimethylthiazol-2-yl)-5-(3-carboxymethoxyphenyl)-2-(4-sulfophenyl)-2H-tetrazolium) based cell proliferation/toxicity assay system (Promega, Madison, Wis.) using cell lines, including the AML cell lines OCIM2 and OCI/AML3, was used to evaluate the effectiveness of the compounds as set forth herein in inhibition of c-Kit cellular activity.
(§2) AML cell lines OCIM2 and OCI/AML3 are human erythroleukemia lines and were provided by M. D. Minden, (Ontario Cancer Institute, Toronto, ON, Canada and as referenced in: Papayannopoulou et al., Blood (1988) 72:1029-1038; Wang et al., Leukemia (1989) 3: 236-249). Cells were maintained in RPMI 1640 culture medium (GIBCO, Grand Island, N.Y.) supplemented with 10% FCS (Flow Laboratories, McLean, Va.) and split twice weekly.
(§3) Briefly, cells were harvested at the logarithmic phase of their growth. They were then washed twice in RPMI 1640 containing 10% FCS and counted in a hemocytometer, and their viability was determined using 0.1% trypan blue staining. Equal numbers of viable cells (5×10^4 cells per well) were incubated in RPMI 1640 medium supplemented with 10% FCS alone or with the candidate drugs at increasing concentrations; the incubations were continued for 72 h in 96-well flat-bottomed plates (Linbro; Flow Laboratories, McLean, Va.) at 37° C. in a humidified 5% CO2 atmosphere. After incubation, 20 μl of CellTiter96 One Solution Reagent (Promega) was added to each well. The plates were then incubated for an additional 60 min at 37° C. in a humidified 5% CO2 atmosphere. Immediately after incubation, absorbance was read using a 96-well plate reader at a wavelength of 490 nm. Each data point was determined six times before analysis.
(§4) While OCIM2 and OCI/AML3 are both AML cell lines, c-Kit is expressed to a much higher degree in the OCI/AML3 line versus OCIM2, as determined by the responsiveness to stem cell factor (SCF), which mediates c-Kit receptor dimerization, activation, and autophosphorylation (Blume-Jensen, et al., (1991) EMBO Journal 10, 4121-8).

A further test addresses c-Kit (Homo sapiens, UniProt P10721). Kind of test: c-Kit kinase enzymatic assay (tyrosine phosphorylation, UpState protocol). In kind it is biochemical. The following applies: FIG. 5. How it is done:
IC50 values were determined for compounds of Examples 1, 10, 12 and 13 using a c-Kit kinase enzymatic assay. Phosphorylation of tyrosine was measured using a kinase assay protocol as provided by UpState Cell Signaling Solutions (Lake Placid, N.Y.). […] The results of the kinase assays validate the modeling and assessment of the structure/activity relationship data.

Another test relates to OCIM2. Kind of test: MTT-based cell proliferation/toxicity assay, OCIM2. Details: species or system human.
Source text: as §1, §2, §3, §4

A further test concerns HCM1.2 cell line. Kind of test: Systemic mastocytosis cell line with mutated c-Kit (position 816). It counts as cell-based. The following applies: HCM1.2 (mutated c-Kit, position 816) vs HCM1.1 (wild-type), FIG. 12 and 13. Here is the method:
The effect of compound 1-[3-(4-fluoro)-1H-pyrazolo[3,4-b]pyridin-6-yl]-3,5-dimethoxy]benzene on two systemic mastocytosis cell lines with unmutated (wild-type) c-Kit (HCM1.1 cell line) and a cell line with mutated c-Kit (mutation at position 816) (HCM1.2 cell line) was also determined. Cell lines were obtained from Dr. Verstovsek (Leuk Res. 2006 Jun. 22, online prepublication).

A short description of test [2]: Inhibition of cell proliferation in the absence and presence of SCF (FIG. 22). In kind it is cell-based. The following applies: absence vs presence of externally introduced SCF.
In test [3] the test system is OCI/AML3. Kind of test: Colony-forming cell proliferation, OCI/AML3. In kind it is cell-based, human. The following applies: OCI/AML3, FIG. 18.
A further test has as its system AML5. Kind of test: Inhibition of cell proliferation of AML1-AML6 in the presence of SCF. In kind it is cell-based. The conditions noted are these: AML5 among AML1-AML6, in the presence of SCF, FIG. 23.
Test [4] has as its system OCI/AML3. The experiment in a line: Cell cycle analysis in OCI/AML3. It counts as cell-based, human. The conditions noted are these: OCI/AML3, FIG. 15.

Sequence of c-Kit (P10721 26-976): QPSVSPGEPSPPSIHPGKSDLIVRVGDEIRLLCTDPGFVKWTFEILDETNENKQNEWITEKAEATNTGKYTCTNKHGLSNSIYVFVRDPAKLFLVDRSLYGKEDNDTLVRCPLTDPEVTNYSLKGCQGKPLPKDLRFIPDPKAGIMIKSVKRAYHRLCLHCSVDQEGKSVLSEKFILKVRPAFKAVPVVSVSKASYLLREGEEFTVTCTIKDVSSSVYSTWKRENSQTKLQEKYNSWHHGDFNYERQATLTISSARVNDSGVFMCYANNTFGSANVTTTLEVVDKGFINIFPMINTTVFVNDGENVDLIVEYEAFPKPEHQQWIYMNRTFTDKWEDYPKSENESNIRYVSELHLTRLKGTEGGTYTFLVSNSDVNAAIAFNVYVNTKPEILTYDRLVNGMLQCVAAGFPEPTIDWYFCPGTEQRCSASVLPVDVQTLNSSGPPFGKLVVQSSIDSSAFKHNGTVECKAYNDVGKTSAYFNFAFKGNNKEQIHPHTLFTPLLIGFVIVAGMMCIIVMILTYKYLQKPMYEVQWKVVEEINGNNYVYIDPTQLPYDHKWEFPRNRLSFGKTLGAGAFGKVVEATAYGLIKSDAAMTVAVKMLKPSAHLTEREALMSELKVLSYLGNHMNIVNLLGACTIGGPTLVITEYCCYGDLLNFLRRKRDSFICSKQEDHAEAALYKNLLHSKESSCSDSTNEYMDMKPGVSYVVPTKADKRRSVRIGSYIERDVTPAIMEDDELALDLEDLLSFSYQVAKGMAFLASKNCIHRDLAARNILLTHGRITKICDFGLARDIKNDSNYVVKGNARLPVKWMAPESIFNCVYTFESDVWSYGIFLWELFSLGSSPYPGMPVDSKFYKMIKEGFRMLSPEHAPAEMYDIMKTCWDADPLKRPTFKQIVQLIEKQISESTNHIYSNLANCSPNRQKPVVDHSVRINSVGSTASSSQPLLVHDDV

One may read the IC50 as the midpoint of a concentration-inhibition curve. Low values mean higher potency, high ones lower potency. In the case of `CCOC(=O)c1ccc(-c2n[nH]c3nc(-c4ccc(C(=O)NCCN(C)C)cc4)ccc23)cc1` [Example 13], the “ability to reduce cell line (dose response)” value (shortened to “ability to reduce cell line”) in the test on OCI/AML3 [1] is recorded as “same effective ability to reduce OCI/AML3 cell line”. Also, on c-Kit, the IC50 is about 3.6 µM.

`Cc1ccc(NC(=O)c2ccc(CN3CCN(C)CC3)cc2)cc1Nc1nccc(-c2cccnc2)n1` [imatinib mesylate, reference compound]: the “response of cell line to prior art compound” value was “resistant” in the test on OCI/AML3 [1] (OCI-AML3 expressing c-Kit, FIG. 6 / FIG. 10) and “resistant” in the test with OCIM2 (OCIM2 uninduced, FIG. 10).

Regarding `COc1ccc(-c2n[nH]c3nc(-c4cc(OC)cc(OC)c4)ccc23)cc1` [Example 12], in the test on OCI/AML3 [1], the “ability to reduce cell line” value was “same effective ability to reduce OCI/AML3 cell line”. The IC50 against c-Kit was about 1.2 µM.

Take `CC(=O)Nc1cccc(-c2ccc3c(-c4ccc(F)cc4)n[nH]c3n2)c1` [Example 3, 3-[3-(4-Fluorophenyl)-1H-pyrazolo[3,4-b]pyridin-6-yl]acetanilide]: in the test on OCI/AML3 [1], the “ability to reduce cell line” value is recorded as “same effective ability to reduce OCI/AML3 cell line”.

As a reminder, the EC50 is the midpoint of the concentration-response curve. A lower EC50 goes with higher potency in that assay. In turn, `COc1ccc(-c2n[nH]c3nc(-c4cccc(NC(C)=O)c4)ccc23)cc1` [Example 1, 3-{(4-Methyloxyphenyl)-1H-pyrazolo[4,3-b]pyridin-6-yl}acetanilide] yielded an EC50 in the test with OCI/AML3 [1] (Homo sapiens, OCI-AML-3, cell viability, OCI/AML3, 72 h, FIG. 6) of about 0.1 µM. In addition, the “ability to reduce cell line” value in the test on OCI/AML3 [1] is reported as “same effective ability to reduce OCI/AML3 cell line”. In addition, on c-Kit, the IC50 is about 0.095 µM.

As for `COc1cc(OC)cc(-c2ccc3c(-c4ccc(F)cc4)n[nH]c3n2)c1` [Example 10], the sensitivity of proliferation result in the test on OCI/AML3 [1] (OCI/AML3, FIG. 16) is listed as “quite sensitive”; with OCIM2 (OCIM2, FIG. 16), “less sensitive”. The “comparison with BMS-354825 and Gleevec” value in the test on OCI/AML3 [1] (percent of control, FIG. 24) is on record as “favorable comparison”. The “selectivity between mastocytosis cell lines” value in the test with HCM1.2 cell line is recorded as “selectivity for the cell line containing mutated c-Kit”. In test [2], the “effect of SCF on inhibition of cell proliferation” value was “enhanced by the presence of externally introduced SCF”. Also, the IC50 against c-Kit is over 100 µM. Also, the colony-forming cell proliferation entry with OCI/AML3 [3] is listed as “inhibits”. Further, the “inhibition of cell proliferation” value in the test with AML5 is “less effective inhibition”. The “proliferation of SCF-stimulated cells” value with OCIM2 (OCIM2 with and without 50 ng/mL SCF, FIG. 9) was “inhibiting the proliferation”. For the same compound, the cell cycle effect entry with OCI/AML3 [4] is given as “causes the accumulation of OCI/AML3 in Sub-G0 phase”.
